In data set [1] the test system is Chinese hamster V79 cells. Nature of the data set: Protection of cells exposed to HX/XO, clonogenic survival. It is filed as cell-based. As to the method:
Chinese hamster V79 cells were grown in F12 medium supplemented with 10% fetal calf serum, penicillin, and streptomycin. Survival was assessed in all studies by the clonogenic assay. The plating efficiency range between 80-90%. Stock cultures of exponentially growing cells were trypsinized, rinsed, and plated (5×10^5 cells/dish) into a number of 100 mm petri dishes and incubated 16 h at 37° C. prior to experimental protocols. Cells were exposed for 1 h at 37° C. to either 0.5 mM hypoxanthine (HX)+0.05 U/ml of xanthine oxidase (XO) for varying lengths of time, or to H2O2 at different concentrations. To assess possible modulation in cytotoxicity, catalase, 100 U/ml; SOD, 100 μg/ml; DF, 500 μM; and 5 mM of each of the nitroxides from Table 1 were added to parallel cultures. CHD was prepared in a stock solution in ethanol and diluted into medium such that the final concentration was 5 mM. […] TEMPOL is water soluble and was prepared directly in tissue culture medium. […] DF was added either 2 h prior to or during treatment while the other agents were present only during HX/XO or H2O2 treatment. Following treatment, cells were rinsed, trypsinized, counted, and plated for macroscopic colony formation. For each dose determination cells were plated in triplicate and the experiments were repeated a minimum of two times. Plates were incubated 7 days, after which colonies were fixed with methanol/acetic acid, stained with crystal violet, and counted. Colonies containing >50 cells were scored. Error bars represent S.D. of the mean and are shown when larger than the symbol.

The test system of data set [2] is Chinese hamster V79 cells. In words: Protection of cells exposed to H2O2 under hypoxic conditions. Format: cell-based. To be noted: 600 μM H2O2, 1 h, 37° C. The protocol:
Some studies required exposure to H2O2 under hypoxic conditions. For these studies, cells dispersed in 1.8 ml of medium were plated into specially designed glass flasks (Russo et al, Radiat. Res., 103, 232-239, 1985). The flasks were sealed with soft rubber stoppers, and 19-gauge needles were pushed through to act as entrance and exit ports for a humidified gas mixture of 95% nitrogen/5% CO2 (Matheson Gas Products). […] Stoppered flasks were connected in series and mounted on a reciprocating platform and gassed at 37° C. for 45 min. […] After 45 min of gassing, the hypoxic H2O2 solution was added to the cell monolayer culture. The cells were exposed to H2O2 for 1 h under hypoxic conditions. N2 gas flow was maintained during the H2O2 exposure. In parallel flasks, DF and CHD were added as described above, and were present during the entire gassing procedure. Following treatment, cell survival was assessed as described above.

Data set [3] can be described thus: Water/octanol partition of nitroxides, ratio determined by EPR. Format: physicochemical. Particulars: Octanol:water. The source says:
CHD, 2-spirocyclohexane doxyl(2-spirocyclohexane-5,5-dimethyl-3-oxazolidinoxyl) and OXANO, 2-ethyl-2,5,5-trimethyl-3-oxazolidine-1-oxyl as well as other nitroxides were synthesized as described by Keana et al (J. Am. Chem. Soc., 89, 3055-3056, 1967) For the general synthesis of the cyclic amines, the appropriate starting ketone was reacted with 2-amino-2-methyl-1-propanol in benzene in the presence of catalytic amounts of p-toluene sulfonic acid. As the cyclic structure formed, water was eliminated. The volume of water collected in a Dean Stark apparatus was monitored and used to gauge the reaction progress. The amines thus produced were purified through fractional distillation under reduced pressure, characterized by 220 MHz ^1H NMR, IR, UV, either EI or CI mass spectroscopy, and subsequently oxidized to the corresponding nitroxides using m-chloroperbenzoic acid. The nitroxides were purified by silica flash chromatography (Still et al, J. Org. Chem., 43, 2923-2925, 1978). Water/octanol ratios were determined by placing a quantity of nitroxide in water+octanol within a separatory funnel. The mixture was shaken thoroughly and allowed to separate for 15 min, whereupon aliquots were taken from both fractions and the ratio of nitroxide distribution was determined using electron paramagnetic resonance (EPR) spectroscopy, by comparing the intensities of signal obtained under N2.

Data set [4] is described as follows: EPR signal of nitroxides exposed to O2 flux formed by HX/XO (spin-loss). Format: biochemical. Particulars: for Steady state EPR signal (%): % from total R′RNO + R′RNOH after exposure to 5 mM HX + 0.03 U/ml XO in air-saturated PBS pH 7.2. The protocol: For EPR experiments, samples (0.05-0.1 ml) either of solutions of chemicals or cell suspensions were drawn by a syringe into a gas-permeable teflon capillary of 0.8 mm inner diameter, 0.05 mm wall thickness (Zeus Industrial Products, Inc. Raritan, N.J.). Each capillary was folded twice, inserted into a narrow quartz tube which was open at both ends (2.5 mm ID), and then placed horizontally into the EPR cavity. During the experiments, gases of desired compositions were blown around the sample without having to disturb the alignment of the tube within the EPR cavity. EPR spectra were recorded in a Varian E4 (or E9) X-band spectrometer, with field set at 3357 G, modulation frequency of 100 KHz, modulation amplitude of 1 G and non-saturating microwave power. The EPR spectrometer was interfaced to an IBM-PC through an analog-to-digital converter and a data translation hardware (DT2801) and the spectra were digitized using commercial acquisition software, enabling subtraction of background signals. To study the kinetics of the spin-loss, the spectra were deliberately overmodulated, and the magnetic field was kept constant while the intensity of the EPR signal was followed.

A short description of data set [5]: SOD-inhibitable ferricytochrome c reduction assay, rate constants of reaction with O2 (SOD-like activity). Format: biochemical. To be noted: low ionic strength (10 mM HEPES), pH 7.0, 22° C. An excerpt:
As a further check, the reaction of representatives of both 5- and 6-membered cyclic nitroxides with O2 was studied. The SOD-inhibitable ferricytochrome c reduction assay (Fridovich, Handbook of Methods for Oxygen Radical Research, 213-215, 1985) was used to determine rate constants of reaction with O2. […] The reaction was started by adding 0.01 U/ml XO and the rate of ferricytochrome c reduction, in the absence (V) and in the presence (v) of various nitroxides, was spectrophotometrically followed at 550 nm. Both reference and sample cuvettes contained all the reagents, with the reference cuvette containing 100 units/ml SOD, thereby eliminating spurious reactions from interfering with the determination of rate constants. Data were analyzed by plotting V/v as a function of [nitroxide] and k1 was calculated, knowing kCytC+superoxide, according to:
(V/v)−1=k1x[nitroxide]/kCytC+superoxidex[Cyt−c^III].

Marks after values point to notes of the source that are not given here.

As for `CC(=O)N(O)CCCCCNC(=O)CCC(=O)N(O)CCCCCNC(=O)CCC(=O)N(O)CCCCCN` [DF, Desferrioxamine, reference compound], the “cell survival / protection from HX/XO” value in data set [1] (0.05 U/ml XO + 0.5 mM HX, 37° C., 5 mM nitroxide, 100 U/ml catalase, SOD, 500 μM DF preincubated 2 h) is recorded as “complete protection”. Moreover, the “protection from HX/XO, DF added simultaneously” value in data set [1] (DF addition simultaneously with HX/XO (data not shown)) is recorded as “only partial protection”. The “protection against H2O2 cytotoxicity under hypoxic conditions” value in data set [2] is “complete protection”.
For the compound `CCC1(C)OC(C)(C)CN1[O]` (stereo not drawn) [OXANO, 2-ethyl-2,5,5-trimethyl-3-oxazolidine-1-oxyl], the Partition coefficient in data set [3] is recorded as 10. Besides, in data set [4], the “Steady state EPR signal (%)” value was found to be 50%. The “kR′RNO + O2” value in data set [5] is on record as 1.1 × 10^3 M − 1^s − 1.
Turning to `CC1(C)CCCC(C)(C)N1[O]` [TEMPO, 2,2,6,6-tetramethylpiperidine-1-oxyl], the “Steady state EPR signal (%)” value in data set [4] is 100%. Moreover, the “effect of O2 on the EPR signal” value in data set [4] (exposure to O2 flux formed by HX/XO) is “no effect”. Further, the “kR′RNO + O2” value in data set [5] was 1.3 × 10^6 M − 1^s − 1.

The record behind these values is patent US6605619B1, “Nitroxides as protectors against oxidatives stress” (The United States of America as represented by the …, priority 1992, dated 2003).
